Source: patent US20190160037A1, “METHOD OF TREATING, REDUCING, PREVENTING DETERIORATION OR IMPROVING VISUAL FUNCTION AFTER OPTIC NEUROPATHY” (TZU CHI UNIVERSITY, priority 2017, published 2019)

Columns and labels:
[1] = test system: hippocampal dentate gyrus region; settings: in vivo studies; cited from earlier work
COX-2 = COX-2 immunoblot in the retina after ON crush; assay type: in vivo, Wistar rats; settings: two weeks after ON crush, ratio to GAPDH, vs PBS-treated
Excerpt: (§1) An ON crush injury was induced as described in the previous report. (Chien J Y, Sheu J H, Wen Z H, Tsai R K, Huang S P. Neuroprotective effect of 4-(Phenylsulfanyl)butan-2-one on optic nerve crush model in rats. Experimental eye research. 2016; 143:148-57. Epub 2015/10/17). Briefly, rats were general anesthetized and eye were further anesthetized with topical 0.5% Alcaine eye drops. The conjunctiva was cut with Vannas scissors to expose the optic nerve. Care was taken to avoid damaging the small vessels around the ON. Injury was introduced by crushing the ON 2 mm posterior to the globe with a vascular clip (60 g micro-vascular clip, World Precision Instruments, FL, USA) for 30 seconds. After the surgery, Tobradex eye ointment (Alcon, Puurs, Belgium) was administered. The rats were kept under supervision and on electric heating pads at 37° C. for recovery. A sham operation was performed by exposing the ON in the same way but not crushed. […]
(§2) Total retinal protein extracts from rat retina were prepared using modified radioimmunoprecipitation (RIPA) buffer. The protein concentrations were determined using the BCA (bicinchoninic acid) protein assay kit (Pierce). […] The proteins on the membranes were detected using an enhanced chemiluminescence (ECL) system (Amersham Biosciences). […]

iNOS = iNOS immunoblot in the retina after ON crush; assay type: in vivo, Wistar rats; settings: two weeks after ON crush, ratio to GAPDH, vs PBS-treated
Excerpt: as §1, §2

[2] = test system: apoptotic cells in the RGC layer; assay: TUNEL assay in the RGC layer of the retina after ON crush; assay type: in vivo, Wistar rats; settings: 15 mg/Kg once by subcutaneous injection, n=6
Excerpt: as §1
To ensure the use of equivalent fields for comparison, all retinal frozen sections were prepared with retinas at 1-2 mm distance from the ONH. […] The TUNEL positive cells in the RGC layer of each sample were counted in ten high powered fields (HPF, ×400 magnification), and three sections per eye were averaged. […]

Brn-3a+ cells (RGCs) = assay: Brn3a-labeled flat-mounted retinas after ON crush; assay type: in vivo, Wistar rats; settings: for densities of Brn-3a+ cells in mid-peripheral retina / densities of Brn-3a+ cells in the central retina: after ON crush, 15 mg/Kg once by subcutaneous injection, 15 mg/kg
Excerpt: (§3) An ON crush injury was induced as described in the previous report. (Chien J Y, Sheu J H, Wen Z H, Tsai R K, Huang S P. Neuroprotective effect of 4-(Phenylsulfanyl)butan-2-one on optic nerve crush model in rats. Experimental eye research. 2016; 143:148-57. Epub 2015/10/17). Briefly, rats were general anesthetized and eye were further anesthetized with topical 0.5% Alcaine eye drops. The conjunctiva was cut with Vannas scissors to expose the optic nerve. Care was taken to avoid damaging the small vessels around the ON. Injury was introduced by crushing the ON 2 mm posterior to the globe with a vascular clip (60 g micro-vascular clip, World Precision Instruments, FL, USA) for 30 seconds. After the surgery, Tobradex eye ointment (Alcon, Puurs, Belgium) was administered. The rats were kept under supervision and on electric heating pads at 37° C. for recovery. A sham operation was performed by exposing the ON in the same way but not crushed. Oroxyiln A (15 mg/Kg in 0.2 ml phosphate-buffered saline) or phosphate-buffered saline (PBS control) was immediately administered after ON crush once by subcutaneous injection.
Animals were euthanized and eyes were enucleated and fixed in 10% formalin for 1 hour. Retina flat mounts were subjected to immunofluorescent staining for Brn-3a as previously described. (Tual-Chalot S, Allinson K R, Fruttiger M, Arthur H M. Whole Mount Immunofluorescent Staining of the Neonatal Mouse Retina to Investigate Angiogenesis In vivo. 2013; (77):e50546). In brief, flat mounts were washed with PBS and blocked with blocking buffer (PBS with 0.3% Triton-X and 5% Fetal Bovine Serum) for 1 hour. Flat mounts were then incubated with primary monoclonal antibody Brn-3a (1:200; Santa Cruz, Calif., USA) for 24 hours, washed with PBS and treated with secondary antibody Alexa flour 488 (1:400; Life Technologies, OR, USA) and incubated overnight. 8 to 10 microphotographs were captured for every retina flat mount covering central and mid peripheral region.

RAW264.7 macrophages = settings: through inhibiting the activation of NFκB-p65; cited from earlier work
[3] = test system: ED1 (CD68, a marker of macrophage/microglia); assay: IHC of ED1 in the ONs after ON crush; assay type: in vivo, Wistar rats; settings: 2 weeks after ON crush; 15 mg/Kg once by subcutaneous injection; n=6
Excerpt: as §1
(§4) IHC of ED1 (CD68, a marker of macrophage/microglia) in the ONs and IHC of GFAP in the retina using monoclonal antibody (ED1, 1:50; AbD Serotec, Oxford, UK) or polyclonal antibody (GFAP, 1:200; Cambridge, Mass., USA) was performed. […] For comparison, ED1 positive cells were counted in six HPF at the lesion site of ON (n=6 in each group).

[4] = test system: rat model subject to ON crush; assay: Flash visual-evoked potentials (FVEPs) after ON crush; assay type: in vivo, Wistar rats; settings: 2 weeks after ON crush; 15 mg/Kg once by subcutaneous injection; n=6
Excerpt: as §3
For the functional evaluation of the ON, FVEPs were recorded 2 weeks after ON crush in 18 experimental rats. The groups in assessing FVEP were masked. […]

microglia = settings: cited from earlier work
GFAP = GFAP IHC and immunoblot in the retina after ON crush; assay type: in vivo, Wistar rats; settings: 2 weeks after ON crush, vs ON-crushed, PBS-treated group, p<0.05
Excerpt: as §1, with “seconds.” for “seconds. After the surgery, Tobradex eye ointment (Alcon, Puurs, Belgium) was administered. The rats were kept under supervision and on electric heating pads at 37° C. for recovery. A sham operation was performed by exposing the ON in the same way but not crushed.”
as §4, §2

RGCs = assay: Retrograde Fluorogold labeling of RGCs, RGC density after ON crush; assay type: in vivo, Wistar rats
Excerpt: as §3
Retrograde labeling of RGCs with Fluorogold (FG) and densities of RGCs. The detailed procedures have been described in the previous reports. (Chien J Y, Sheu J H, Wen Z H, Tsai R K, Huang S P. Neuroprotective effect of 4-(Phenylsulfanyl)butan-2-one on optic nerve crush model in rats. Experimental eye research. 2016; 143:148-57. Epub 2015/10/17; Tsai R K, Chang C H, Wang H Z. Neuroprotective effects of recombinant human granulocyte colony-stimulating factor (G-CSF) in neurodegeneration after optic nerve crush in rats. Experimental eye research. 2008; 87(3):242-50. Epub 2008/07/08). Briefly, retrograde labeling of RGCs with FG was performed one week before sacrificing to avoid overcounting RGCs by mixing labeled RGCs with dye-engulfed macrophages and microglia. (Huang T L, Huang S P, Chang C H, Lin K H, Sheu M M, Tsai R K. Factors influencing the retrograde labeling of retinal ganglion cells with fluorogold in an animal optic nerve crush model. Ophthalmic research. 2014; 51(4):173-8. Epub 2014/03/26). The rats were anesthetized using a ketamine (100 mg/kg) and xylazine (10 mg/kg) mixture, and then placed in a stereotactic apparatus (Stoelting, Wood Dale, Ill., USA). […] One week after labeling, the eyeballs were harvested after euthanasia of the animals. The eyeballs were placed in 10% formalin and the whole retina was then carefully dissected, flattened. The retina was examined with a 400 epi-fluorescence microscope (Axioskop; Carl Zeiss Meditec. Inc., Jena, Germany) equipped with a filter set (excitation filter: 350-400 nm; barrier filter: 515 nm), as well as a digital camera (Axiocam MRm) and software (Axiovision 4.0). The retinas were examined for RGCs at a distance of 1 or 3 mm ([…] from the center to provide the central and mid-peripheral RGC densities respectively. Eight randomly chosen areas (38250 μm2; […]) in the central (about 40% of the central area) and mid-peripheral (about 30% of the mid-periphery) regions of each retina (n=6 per group) were counted. The averages of these areas were taken as the mean density of RGCs per retina. RGC survival percentage was defined as the number of RGCs in each treatment group divided by the number of RGCs in the sham-operated retina, multiplied by 100.

[5] = compared to the PBS-treated group
[6] = relative to sham-operated retina, two weeks after ON crush
[7] = two weeks after ON crush, 15 mg/Kg once by subcutaneous injection, n=6

## COc1c(O)cc2oc(-c3ccccc3)cc(=O)c2c1O [oroxylin A, 5,7-dihydroxy-6-methoxyflavone]
[1]
  adult neurogenesis in the hippocampal dentate gyrus region: stimulated
  amyloid (Aβ)-induced memory impairment: ameliorated
  cerebral hypoperfusion-induced neuronal damage: prevented
COX-2
  expression level of COX-2 in the retina: reducing the expression level
COX-2; listed as Oroxylin A
  expression level of COX-2 in the retina: suppressed the increase
iNOS
  expression level of iNOS in the retina: reducing the expression level
iNOS; listed as Oroxylin A
  expression level of iNOS in the retina: suppressed the increase
[2]
  TUNEL positive cells in the RGC layer: 4.0±2.4 positive cells/HPG
Brn-3a+ cells (RGCs)
  densities of Brn-3a+ cells in mid-peripheral retina: 801±199 /mm^2
  densities of Brn-3a+ cells in the central retina: 847±367 /mm^2
Brn-3a+ cells (RGCs); listed as oroxylin-A
  densities of Brn-3a+ cells in mid-peripheral retina: 800±199 /mm^2
  densities of Brn-3a+ cells in the central retina: 894±367 /mm^2
Brn-3a+ cells (RGCs); [5]
  RGC survival rate increase vs PBS-treated group, central retina (Brn-3a): approximately 30.4%
  RGC survival rate increase vs PBS-treated group, mid-peripheral retina (Brn-3a): ~29.7%
Brn-3a+ cells (RGCs); relative to sham-operated eyes
  RGC survival, central retina (Brn-3a): 64.9 % survival
  RGC survival, mid-peripheral retina (Brn-3a): 73 % survival
RAW264.7 macrophages
  LPS-induced iNOS and cyclooxygenase-2 expression: suppresses
[3]
  ED1 positive cells at the ON lesion site: 33.5±16.3 cells/HPF
[4]
  latency of the P1 wave in FVEP: 100 ± 12 ms
microglia
  LPS-induced NO production: strong inhibitory activities
GFAP
  GFAP level in the retina (retinal gliosis): significantly reduced
GFAP; listed as Oroxylin A
  GFAP level in the retina (retinal gliosis): attenuated retinal gliosis
RGCs; [5]
  RGC survival rate increase vs PBS-treated group, central retina (FG labeling): approximately 32.7%
  RGC survival rate increase vs PBS-treated group, mid-peripheral retina (FG labeling): ~33.6%
RGCs; [6]
  RGC survival, central retina (FG labeling): 52.5 % survival
  RGC survival, mid-peripheral retina (FG labeling): 61.9 % survival
RGCs; [7]
  densities of RGCs in mid-peripheral retina (FG labeling): 960±465 /mm^2
  densities of RGCs in the central retina (FG labeling): 1352±476 /mm^2
